Species on record: Rattus norvegicus
Test: Open TG-GATES - Regimen: Single
Assay type: toxicity, organism-based, Sprague-Dawley
Set-up: regimen Single, gender Male, age 6 weeks
Details: in vivo, po, route gavage; for TP / gamma-GTP / ALT / AST / BUN / CRE / DBIL / GLC / IP / K / LDH / RALB / TBIL / TC / ALP / PL: tissue Plasma; for APTT / Bas / Eos / Fbg / Ht / Lym / MCHC / MCV / Mono / PT / Plat / RBC / Ret / WBC: tissue Blood; for KIDNEY_L / KIDNEY_R / KIDNEY_TOTAL: tissue Kidney; for LIVER: tissue Liver
[1] = 30 mg/kg, 3 h, dose level Middle
[2] = 30 mg/kg, 6 h, dose level Middle
[3] = 30 mg/kg, 9 h, dose level Middle
[4] = 30 mg/kg, 24 h, dose level Middle
[5] = 100 mg/kg, 3 h, dose level High
[6] = 100 mg/kg, 6 h, dose level High
[7] = 100 mg/kg, 9 h, dose level High
[8] = 100 mg/kg, 24 h, dose level High

Q: Which results are given for CN(C)CCCN1c2ccccc2CCc2ccccc21 [IMIPRAMINE]?
A: TP (10 mg/kg, 24 h, dose level Low): 5.4 g/dL; gamma-GTP (10 mg/kg, 24 h, dose level Low): 1 IU/L; TERMINAL_BW [1]: 202.2 g; APTT [1]: 16.3 s; Bas [1]: 0.2%; Eos [1]: 1%; Fbg [1]: 313 mg/dL; Ht [1]: 42.7%; Lym [1]: 78.8%; MCHC [1]: 32.4%; MCV [1]: 65.8 fL; Mono [1]: 3%; PT [1]: 15.6 s; Plat [1]: 106.2 x10_4/uL; RBC [1]: 651.2 x10_4/ul; Ret [1]: 8.1%; WBC [1]: 75.9 x10_2/uL; KIDNEY_L [1]: 0.9 g; KIDNEY_R [1]: 0.9 g; KIDNEY_TOTAL [1]: 1.8 g; LIVER [1]: 9.5 g; ALT [1]: 43.4 IU/L; AST [1]: 70.2 IU/L; BUN [1]: 7.8 mg/dL; CRE [1]: 0.1 mg/dL; DBIL [1]: 0.008 mg/dL; GLC [1]: 191.6 mg/dL; IP [1]: 9.1 mg/dL; K [1]: 4 meq/L; LDH [1]: 88.4 IU/L; RALB [1]: 2.6 g/dL; TBIL [1]: 0.058 mg/dL; TC [1]: 79.2 mg/dL; TP [1]: 5.6 g/dL; gamma-GTP [1]: 1 IU/L; TERMINAL_BW [2]: 198.5 g; APTT [2]: 16.1 s; Bas [2]: 0%; Eos [2]: 1%; Fbg [2]: 311.6 mg/dL; Ht [2]: 41.9%; Lym [2]: 72.6%; MCHC [2]: 32.7%; MCV [2]: 63.9 fL; Mono [2]: 3.2%; PT [2]: 15.7 s; Plat [2]: 122.8 x10_4/uL; RBC [2]: 656 x10_4/ul; Ret [2]: 7.6%; WBC [2]: 81.3 x10_2/uL; KIDNEY_L [2]: 0.9 g; KIDNEY_R [2]: 0.9 g; KIDNEY_TOTAL [2]: 1.8 g; ALP [2]: 1270.6 IU/L; ALT [2]: 40.2 IU/L; AST [2]: 72.8 IU/L; BUN [2]: 6.2 mg/dL; CRE [2]: 0.1 mg/dL; DBIL [2]: 0.01 mg/dL; GLC [2]: 177.4 mg/dL; IP [2]: 9.8 mg/dL; K [2]: 4.1 meq/L; LDH [2]: 138.2 IU/L; RALB [2]: 2.5 g/dL; TBIL [2]: 0.062 mg/dL; TC [2]: 81.2 mg/dL; TP [2]: 5.4 g/dL; gamma-GTP [2]: 1.4 IU/L; TERMINAL_BW [3]: 197.4 g; APTT [3]: 15.4 s; Bas [3]: 0%; Eos [3]: 1%; Fbg [3]: 290.8 mg/dL; Ht [3]: 42.1%; Lym [3]: 78.4%; MCHC [3]: 32.5%; MCV [3]: 65.8 fL; Mono [3]: 1.8%; PT [3]: 15.8 s; Plat [3]: 111.8 x10_4/uL; RBC [3]: 639.4 x10_4/ul; Ret [3]: 7.8%; WBC [3]: 69.2 x10_2/uL; KIDNEY_L [3]: 0.9 g; KIDNEY_R [3]: 1 g; KIDNEY_TOTAL [3]: 1.9 g; LIVER [3]: 8.4 g; ALP [3]: 1205.4 IU/L; ALT [3]: 35.8 IU/L; AST [3]: 65.2 IU/L; BUN [3]: 5.8 mg/dL; CRE [3]: 0.1 mg/dL; DBIL [3]: 0.01 mg/dL; GLC [3]: 191 mg/dL; IP [3]: 9.6 mg/dL; K [3]: 4.1 meq/L; LDH [3]: 64.6 IU/L; PL [3]: 131.2 mg/dL; RALB [3]: 2.5 g/dL; TBIL [3]: 0.06 mg/dL; TC [3]: 68 mg/dL; TP [3]: 5.3 g/dL; gamma-GTP [3]: 0.8 IU/L; TERMINAL_BW [4]: 209.9 g; APTT [4]: 16.1 s; Bas [4]: 0%; Eos [4]: 1%; Fbg [4]: 298.2 mg/dL; Ht [4]: 41.7%; Lym [4]: 82%; MCHC [4]: 32.6%; MCV [4]: 64.6 fL; Mono [4]: 2.4%; PT [4]: 16.5 s; Plat [4]: 119.3 x10_4/uL; RBC [4]: 644.8 x10_4/ul; Ret [4]: 7.6%; WBC [4]: 75.5 x10_2/uL; KIDNEY_L [4]: 0.9 g; KIDNEY_R [4]: 0.9 g; KIDNEY_TOTAL [4]: 1.8 g; LIVER [4]: 9.2 g; ALP [4]: 1509.8 IU/L; ALT [4]: 45.6 IU/L; AST [4]: 69.6 IU/L; CRE [4]: 0.2 mg/dL; GLC [4]: 177 mg/dL; IP [4]: 7.8 mg/dL; K [4]: 4.2 meq/L; LDH [4]: 101.8 IU/L; RALB [4]: 2.7 g/dL; TBIL [4]: 0.06 mg/dL; TC [4]: 85.2 mg/dL; TP [4]: 5.6 g/dL; gamma-GTP [4]: 1 IU/L; TERMINAL_BW [5]: 202.6 g; APTT [5]: 16.3 s; Bas [5]: 0%; Eos [5]: 0.5%; Fbg [5]: 283.8 mg/dL; Ht [5]: 40.4%; Lym [5]: 72.5%; MCHC [5]: 32.8%; MCV [5]: 63.6 fL; Mono [5]: 3.2%; PT [5]: 15.8 s; Plat [5]: 110.1 x10_4/uL; RBC [5]: 635.8 x10_4/ul; Ret [5]: 8.6%; WBC [5]: 79.2 x10_2/uL; KIDNEY_L [5]: 0.9 g; KIDNEY_R [5]: 0.9 g; KIDNEY_TOTAL [5]: 1.8 g; LIVER [5]: 9.4 g; ALP [5]: 1336.2 IU/L; ALT [5]: 45 IU/L; AST [5]: 73.5 IU/L; BUN [5]: 6.8 mg/dL; CRE [5]: 0.1 mg/dL; DBIL [5]: 0.0125 mg/dL; GLC [5]: 190.8 mg/dL; IP [5]: 10 mg/dL; K [5]: 3.9 meq/L; LDH [5]: 61 IU/L; PL [5]: 138 mg/dL; RALB [5]: 2.5 g/dL; TBIL [5]: 0.07 mg/dL; TC [5]: 69 mg/dL; TP [5]: 5.3 g/dL; gamma-GTP [5]: 1.2 IU/L; TERMINAL_BW [6]: 200.3 g; APTT [6]: 15.9 s; Bas [6]: 0%; Eos [6]: 0.8%; Fbg [6]: 299.4 mg/dL; Ht [6]: 42.4%; Lym [6]: 71.2%; MCHC [6]: 32.2%; MCV [6]: 66.2 fL; Mono [6]: 3%; PT [6]: 15.8 s; Plat [6]: 108.9 x10_4/uL; RBC [6]: 641.6 x10_4/ul; Ret [6]: 8.3%; WBC [6]: 74.4 x10_2/uL; KIDNEY_L [6]: 0.9 g; KIDNEY_R [6]: 0.9 g; KIDNEY_TOTAL [6]: 1.8 g; ALP [6]: 1251.8 IU/L; ALT [6]: 37 IU/L; AST [6]: 64.2 IU/L; BUN [6]: 6.4 mg/dL; CRE [6]: 0.1 mg/dL; DBIL [6]: 0.01 mg/dL; GLC [6]: 182 mg/dL; IP [6]: 9.9 mg/dL; K [6]: 4 meq/L; LDH [6]: 62.8 IU/L; RALB [6]: 2.5 g/dL; TBIL [6]: 0.062 mg/dL; TC [6]: 83.8 mg/dL; TP [6]: 5.4 g/dL; gamma-GTP [6]: 1.2 IU/L; TERMINAL_BW [7]: 199.8 g; APTT [7]: 16.1 s; Bas [7]: 0.2%; Eos [7]: 0.8%; Fbg [7]: 309.4 mg/dL; Ht [7]: 42%; Lym [7]: 73%; MCHC [7]: 32.2%; MCV [7]: 66.8 fL; Mono [7]: 2.4%; PT [7]: 15.8 s; Plat [7]: 111.5 x10_4/uL; RBC [7]: 629.2 x10_4/ul; Ret [7]: 8.8%; WBC [7]: 70.8 x10_2/uL; KIDNEY_L [7]: 0.9 g; KIDNEY_R [7]: 0.9 g; KIDNEY_TOTAL [7]: 1.8 g; LIVER [7]: 8.3 g; ALP [7]: 1131.2 IU/L; ALT [7]: 35.6 IU/L; AST [7]: 63.6 IU/L; BUN [7]: 5.2 mg/dL; CRE [7]: 0.1 mg/dL; GLC [7]: 179.2 mg/dL; IP [7]: 10.2 mg/dL; K [7]: 4.1 meq/L; LDH [7]: 59.2 IU/L; RALB [7]: 2.5 g/dL; TBIL [7]: 0.056 mg/dL; TC [7]: 80.8 mg/dL; TP [7]: 5.4 g/dL; gamma-GTP [7]: 1 IU/L; TERMINAL_BW [8]: 198.2 g; APTT [8]: 16 s; Bas [8]: 0%; Eos [8]: 0.6%; Fbg [8]: 293.2 mg/dL; Ht [8]: 42.6%; Lym [8]: 82.6%; MCHC [8]: 32.4%; MCV [8]: 65.1 fL; Mono [8]: 2%; PT [8]: 16.6 s; Plat [8]: 116.4 x10_4/uL; RBC [8]: 655.2 x10_4/ul; Ret [8]: 7.3%; WBC [8]: 49 x10_2/uL; KIDNEY_L [8]: 0.9 g; KIDNEY_R [8]: 0.9 g; KIDNEY_TOTAL [8]: 1.8 g; LIVER [8]: 8.1 g; ALP [8]: 1350.6 IU/L; ALT [8]: 35.4 IU/L; AST [8]: 61 IU/L; BUN [8]: 12.8 mg/dL; CRE [8]: 0.2 mg/dL; DBIL [8]: 0.02 mg/dL; GLC [8]: 176.4 mg/dL; IP [8]: 8.2 mg/dL; K [8]: 4.5 meq/L; LDH [8]: 62.8 IU/L; PL [8]: 137.8 mg/dL; RALB [8]: 2.6 g/dL; TBIL [8]: 0.062 mg/dL; TC [8]: 83.2 mg/dL; TP [8]: 5.6 g/dL; gamma-GTP [8]: 1.2 IU/L

From ChEMBL document CHEMBL3885861, “Open TG-GATES”
